Reference: patent publication US20240400584A1, “COMPOUNDS AND METHODS FOR MODULATING SPLICING” (REMIX THERAPEUTICS INC., priority 2021, published 2024)
Read-outs that look alike come from different tables or passages of the source.

Tests used:
HTT [1] = test: RT-qPCR splicing assay, HTT AJ/CJ mRNA; format: cell-based, human; settings: A673 or K562 cells; for IC50: decrease in canonical junction mRNA; for AC50: increase in alternative junction mRNA
Outline: (§1)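 Cells: A673 (DMEM/10% FBS) or K562 (IMDM/10% FBS). Dosing: 11-pt 3-fold, top 10 uM final, DMSO ≤0.25%, 24 h, 37° C. Readout: one-step RT-qPCR on lysate, CJ vs AJ isoforms; ΔCt vs housekeeper, ΔΔCt vs DMSO, 2^(−ΔΔCt) RQ → % response.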

MYB [2] = test: RT-qPCR splicing assay, MYB AJ/CJ mRNA; format: cell-based; settings: Homo sapiens, A673 or K562 cells, 24 hours; for IC50: decrease in canonical junction mRNA; for AC50: increase in alternative junction mRNA
Outline: as §1

HTT [3] = test: Gene panel canonical junction qPCR assay, HTT CJ mRNA (Table 7); format: cell-based, human; settings: read-out: HTT CJ mRNA decrease IC50
Outline: (§2)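 IC50 values reflect compound concentration giving 50% reduction in canonical exon–exon junction mRNA. Cell lysates from A673 or K562 treatments were reverse-transcribed and probed by junction-spanning qPCR, normalized to a housekeeper and vehicle, then fitted to a 4-parameter logistic equation.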

SMN2 = test: Gene panel canonical junction qPCR assay, SMN2 CJ mRNA (Table 7); format: cell-based; settings: Homo sapiens, read-out: SMN2 CJ mRNA decrease IC50
Outline: as §2

MYB [4] = test: Gene panel canonical junction qPCR assay, MYB CJ mRNA (Table 7); format: cell-based; settings: Homo sapiens, read-out: MYB CJ mRNA decrease IC50
Outline: as §2

Target C = test: Gene panel canonical junction qPCR assay, Target C CJ mRNA (Table 7); format: cell-based, human; settings: read-out: Target C CJ mRNA decrease IC50
Outline: as §2

IC50 (HTT [1]; Homo sapiens, 24 h) [µM]	IC50 (MYB [2]) [µM]	IC50 (HTT [3]; Homo sapiens) [µM]	IC50 (SMN2) [µM]	IC50 (MYB [4]) [µM]	IC50 (Target C; Homo sapiens) [µM]	Structure (SMILES)	AC50 (HTT [1]; Homo sapiens, 24 h) [µM]	AC50 (MYB [2]) [µM]	IC50 (HTT [1]; 24 hours) [µM]	AC50 (HTT [1]; 24 hours) [µM]	IC50 (HTT [3]) [µM]	IC50 (Target C) [µM]
0.1 to 1	1 to 10	0.1 to 1	0.1 to 1	1 to 10	0.1 to 1	COc1cc(-c2ccc3c(c2)COc2nc(N4CCC(NC5CCC5)C4)ccc2-3)cnn1 (stereo not shown) [Compound 280, N-cyclobutyl-1-[8-(6-methoxypyridazin-4-yl)-6H-isochromeno[3,4-b]pyridin-3-yl]pyrrolidin-3-amine]	0.1 to 1	0.1 to 1				
1 to 10	> 10	1 to 10	0.1 to 1	> 10	> 10	c1cnn(-c2ccc3c(c2)COc2nc(N4CCC(NC5CC5)C4)ccc2-3)n1 (stereo not shown) [Compound 249, N-cyclopropyl-1-[8-(1,2,3-triazol-2-yl)-6H-isochromeno[3,4-b]pyridin-3-yl]pyrrolidin-3-amine]	1 to 10	> 10				
> 10	> 10	> 10	> 10	> 10	> 10	c1cnn(-c2ccc3c(c2)COc2nc(N4CCCC5(CNC5)C4)ccc2-3)c1 [Compound 181]	> 10	> 10				
1 to 10	> 10	> 10	> 10	> 10	1 to 10	CC1(C)CC(Nc2ccc3c(n2)CCOc2cc(-n4cccn4)ccc2-3)CC(C)(C)N1 [Compound 137]	1 to 10	> 10				
0.1 to 1	0.1 to 1	0.1 to 1	0.1 to 1	0.1 to 1	0.1 to 1	COc1cc(-c2cc3c(cc2F)-c2ccc(OC4CC(C)(C)NC(C)(C)C4)nc2OC3)cnn1 [Compound 244]	< 0.1	0.1 to 1				
< 0.1	0.1 to 1	< 0.1	< 0.1	0.1 to 1	0.1 to 1	COc1cc(-c2ccc3c(c2)COc2nc(N4CCC(NC(C)(C)C(C)C)C4)ccc2-3)cnn1 (stereo not shown) [Compound 316, N-(2,3-dimethylbutan-2-yl)-1-[8-(6-methoxypyridazin-4-yl)-6H-isochromeno[3,4-b]pyridin-3-yl]pyrrolidin-3-amine]	0.1 to 1	0.1 to 1				
0.1 to 1	> 10	0.1 to 1	0.1 to 1	> 10	1 to 10	CCOc1cc(-c2ccc3c(c2)COc2nc(N4CCC(NC(C)(C)C)C4)ccc2-3)cnn1 (stereo not shown) [Compound 267, N-tert-butyl-1-[8-(6-ethoxypyridazin-4-yl)-6H-isochromeno [3,4-b]pyridin-3-yl]pyrrolidin-3-amine]	1 to 10	> 10				

More lines, now with the values behind:

Structure (SMILES)	IC50 (HTT [1]; Homo sapiens, 24 h) [µM]	IC50 (MYB [2]) [µM]	IC50 (HTT [3]; Homo sapiens) [µM]	IC50 (SMN2) [µM]	IC50 (MYB [4]) [µM]	IC50 (Target C; Homo sapiens) [µM]	AC50 (HTT [1]; Homo sapiens, 24 h) [µM]	AC50 (MYB [2]) [µM]	IC50 (HTT [1]; 24 hours) [µM]	AC50 (HTT [1]; 24 hours) [µM]	IC50 (HTT [3]) [µM]	IC50 (Target C) [µM]
COc1cc(-c2ccc3c(c2)COc2nc(N4CCC(N(C)CC5CC5)C4)ccc2-3)cnn1 (stereo not shown) [Compound 308]	0.1 to 1	1 to 10	0.1 to 1	0.1 to 1	1 to 10	1 to 10	1 to 10	1 to 10				
COc1cc(-c2ccc3c(c2)COc2nc(N4CCC(N(C)C5CC5)C4)ccc2-3)cnn1 (stereo not shown) [Compound 320]	1 to 10	> 10	1 to 10	0.1 to 1	> 10	1 to 10	1 to 10	1 to 10				
C[C@]12CC[C@](C)(C[C@@H](Oc3ccc4c(n3)OCc3cc(-n5cccn5)ccc3-4)C1)N2 [Compound 228]	0.1 to 1	1 to 10	0.1 to 1	0.1 to 1	1 to 10	1 to 10	1 to 10	1 to 10				
Cn1ncc(-c2ccc3c(c2)COc2nc(OC4CC5CC(F)(F)C(C4)N5)ccc2-3)cc1=O (stereo not shown) [Compound 261, 5-[3-({6,6-difluoro-8-azabicyclo[3.2.1]octan-3-yl}oxy)-6H-isochromeno[3,4-b]pyridin-8-yl]-2-methylpyridazin-3-one]	> 10	> 10	> 10	> 10	> 10	> 10	> 10	> 10				
c1cnn(-c2ccc3c(c2)COc2nc(O[C@@H]4C[C@H]5CC[C@@H](C4)N5)ccc2-3)c1 [Compound 188]	0.1 to 1	1 to 10	0.1 to 1	0.1 to 1	1 to 10	1 to 10	0.1 to 1	1 to 10				
CC(C)(C)NC1CCN(c2ccc3c(n2)OCc2cc(-c4c(F)cn[nH]c4=O)ccc2-3)C1 (stereo not shown) [Compound 315, 4-{3-[3-(tert-butylamino)pyrrolidin-1-yl]-6H-isochromeno[3,4-b]pyridin-8-yl}-5-fluoro-2H-pyridazin-3-one]	> 10	> 10	> 10	> 10	> 10	> 10	> 10	> 10				
COc1cc(-c2ccc3c(c2)COc2nc(N4CC[C@@H](N(C)C(C)(C)C)C4)ccc2-3)cnn1 [Compound 271, (3R)—N-tert-butyl-1-[8-(6-methoxypyridazin-4-yl)-6H-isochromeno [3,4-b]377yrrolid-3-yl]-N-methylpyrrolidin-3-amine]	< 0.1	0.1 to 1	< 0.1	< 0.1	0.1 to 1	0.1 to 1	< 0.1	0.1 to 1				
COc1cc(-c2ccc3c(c2)COc2nc(NC4CC5CC(F)(F)C(C4)N5)ccc2-3)cnn1 (stereo not shown) [Compound 240, 6,6-difluoro-N-[8-(6-methoxypyridazin-4-yl)-6H-isochromeno[3,4-b]pyridin-3-yl]-8-azabicyclo[3.2.1]octan-3-amine]	< 0.1	1 to 10	< 0.1	0.1 to 1	1 to 10	0.1 to 1	0.1 to 1	1 to 10				
Fc1cc2c(cc1-c1cn[nH]c1)COc1nc(O[C@@H]3C[C@H]4CC(F)(F)[C@@H](C3)N4)ccc1-2 [Compound 236]	< 0.1	0.1 to 1	< 0.1	< 0.1	0.1 to 1	0.1 to 1	< 0.1	< 0.1				
CC(C)(C)N[C@H]1CCN(c2ccc3c(n2)OCc2cc(-c4cn[nH]c4)ccc2-3)C1 [Compound 258, (3S)—N-tert-butyl-1-[8-(1H-pyrazol-4-yl)-6H-isochromeno[3,4-b]pyridin-3-yl]pyrrolidin-3-amine]	0.1 to 1	1 to 10	0.1 to 1	0.1 to 1	1 to 10	0.1 to 1	0.1 to 1	0.1 to 1				
c1cnn(-c2ccc3c(c2)OCc2nc(N[C@@H]4C[C@H]5CC[C@@H](C4)N5)ccc2-3)c1 [Compound 135]		1 to 10		1 to 10	1 to 10			> 10	1 to 10	1 to 10	1 to 10	1 to 10
COc1cc(-c2ccc3c(c2)COc2nc(N4CCN5CCCC5C4)ccc2-3)cnn1 (stereo not shown) [Compound 283]	0.1 to 1	1 to 10	0.1 to 1	0.1 to 1	1 to 10	1 to 10	1 to 10	1 to 10				
COc1cc(-c2ccc3c(c2)COc2nc(N4CC[C@H](N(C)C(C)(C)C)C4)ccc2-3)cnn1 [Compound 270, (3S)—N-tert-butyl-1-[8-(6-methoxypyridazin-4-yl)-6H-isochromeno[3,4-b]pyridin-3-yl]-N-methylpyrrolidin-3-amine]	< 0.1	0.1 to 1	< 0.1	< 0.1	0.1 to 1	0.1 to 1	< 0.1	0.1 to 1				
CC1(C)CC(N(c2ccc3c(n2)OCc2cc(-n4cccn4)ccc2-3)C2CC2)CC(C)(C)N1 [Compound 204]	1 to 10	1 to 10	1 to 10	1 to 10	1 to 10	> 10	> 10	> 10				
COc1cc(-c2ccc3c(c2)COc2nc(OC4CC5CC(F)(F)C(C4)N5)ccc2-3)cnn1 (stereo not shown) [Compound 225, 6,6-difluoro-3-{[8-(6-methoxypyridazin-4-yl)-6H-isochromeno[3,4-b]pyridin-3-yl]oxy}-8-azabicyclo[3.2.1]octane]	0.1 to 1	> 10	0.1 to 1	1 to 10	> 10	> 10	1 to 10	> 10				
COc1cnnc(-c2ccc3c(c2)COc2nc(N4CCC(NC(C)(C)C)C4)ccc2-3)c1 (stereo not shown) [Compound 292]	> 10	> 10	> 10	1 to 10	> 10	1 to 10	> 10	> 10				
